Tested on: brown rats, Rattus norvegicus
Assay: Laboratory arena with two trap boxes: behavioral responses of rats (first entry, time spent)
Type: in vivo
Excerpt: A laboratory experimental apparatus was constructed to test the behavioral responses of rats to the compositions described herein. The experimental design is depicted in FIG. 1 and includes a circular galvanized steel arena (200 cm×60 cm) illuminated from above by a 7.5-W red bulb (Halco Lighting Technologies, Norcross, Ga. 30071, USA) to facilitate observations of the position of the rat within the steel arena. Two metal trap boxes (3a, 3b) (each 25 cm×20 cm×12 cm; T. Eaton & Co. Inc., Twinsburg, Ohio 44087, USA) were placed in opposite quadrants of the arena (1) 10 cm from the wall to serve as harborage. Each box (3a, 3b) was fitted with a Petri dish (3 cm) containing a Whatman #1 filter paper disk (25 mm diam; Sigma-Aldrich Canada Co. Oakville, On L6H 6J8) treated with a randomly assigned treatment or control stimulus. Individual rats were released from a gated mesh and sheet metal box (2) (25 cm×15 cm×15 cm) positioned equidistant to each of the two metal trap boxes (3a, 3b).
For each experimental replicate, a single rat was removed from its “home” cage, and placed into the gated mesh- and sheet-metal container (2). After a 10-min acclimation period, the gate was raised, allowing the rat to leave the box (2) on its own accord and to explore the arena (1) and the trap boxes (3a, 3b).
A rat was classed a responder if it entered a trap box (3a, 3b). For each responding rat, two criteria were recorded and analyzed: 1) the trap box (3a, 3b) it entered first (“first entry”), and 2) the time it spent in the arena quadrants associated with a trap box (“time spent”). The latter data were obtained by recording the rat's position in any one of the four arena quadrants at each of 30 1-min intervals. Following each replicate, the arena and trap boxes were cleaned with a Percept™ disinfectant detergent (Virox Technologies Inc. Mississaugua ON L5N 5M4, Canada) and were wiped with a pet urine odor remover (Nature's Miracle®, Spectrum Brands Inc., Blacksburg, Va. 24060-6671, USA).
First-choice data and the time spent in a trap box quadrant were analyzed using a χ^2 test with Yates' correction for continuity (α=0.05) and the Student's t-test (α=0.05), respectively.
In Experiments 1 and 2, the laboratory experimental design of FIG. 1 was used to evaluate the responses of male and female rats to synthetic androstenone. For Experiments 1 and 2, the treatment stimulus consisted of filter paper sprayed with 2 ml of an aqueous microemulsion containing 4 μg of synthetic androstenone and a control stimulus which consisted of untreated filter paper. The treatment stimulus and control stimulus were placed in the trap boxes (3a, 3b). Experiment 1 tested the response of male rats and Experiment 2 tested the response of female rats.
In Experiments 3 and 4, the laboratory experimental design of FIG. 1 was used to evaluate the responses of male and female rats to synthetic progesterone and estrogen. For Experiments 3 and 4, the treatment stimulus consisted of filter paper impregnated with a 4-μg blend of the synthetic hormones progesterone and estrogen formulated in 50 μl of ether at a ratio of either 100:1 (Experiment 3) or 1000:1 (Experiment 4). The control stimulus in each of Experiments 3 and 4 consisted of filter paper impregnated with 50 μl of ether.
Experiment 14 used the laboratory experimental apparatus of FIG. 1 to test choices of female rats between a treatment stimulus consisting of filter paper treated with 150 ng of synthetic testosterone formulated in 50 μl of ether and a control stimulus consisting of filter paper treated with 50 μl of ether.

[1] = Experiment 1, male rats, 4 μg synthetic androstenone
[2] = Experiment 2, female rats, 4 μg synthetic androstenone
[3] = Experiment 14, female rats, 150 ng synthetic testosterone

SMILES | first entry into treatment trap box vs control trap box [1] | time spent in quadrants associated with stimulus vs opposite control quadrants [1] | attractive effect on male rats (Experiment 1, male rats, 4 μg synthetic androstenone on filter paper vs untreated filter paper) | first entry into treatment trap box vs control trap box [2] | time spent in quadrants associated with treatment stimulus vs opposite control quadrants [2] | attractive effect on female rats (Experiment 2, female rats, 4 μg synthetic androstenone on filter paper vs untreated filter paper) | first entry into baited trap box vs control trap box [3] | time spent in arena quadrant of baited trap box vs opposite control quadrant [3] | attractant effect on female rats (Experiment 14, female rats, 150 ng synthetic testosterone in 50 μl ether vs ether)
C[C@]12CCC(=O)C[C@@H]1CC[C@@H]1[C@@H]2CC[C@]2(C)C=CC[C@@H]12 [androstenone, 5α-androst-16-en-3-one] | as often as | significantly less time | no observed attractive effect | significantly more often | significantly more time | very attractive effect |  |  | 
C[C@]12CC[C@H]3[C@@H](CCC4=CC(=O)CC[C@@]43C)[C@@H]1CC[C@@H]2O [testosterone, (8R,9S,10R,13S,14S,17S)-17-hydroxy-10,13-dimethyl-1,2,6,7,8,9,11,12,14,15,16,17-dodecahydrocyclopenta[a]phenanthren-3-one, reference compound] |  |  |  |  |  |  | significantly more often | significantly more time | very positive attractant effect

From patent US11185077B2, “Attractants for rodents” (priority 2016, dated 2021)
